Data: patent US10273240B2, “Cortistatin analogues, syntheses, and uses thereof” (President and Fellows of Harvard College, priority 2015, dated 2019)
Where two headings read alike, the source gives them in different places.

How the values were obtained:
SET-2 = assay: Cell growth assay, SET-2; format: cell-based; conditions: Homo sapiens
Method: (§1) Cell Culture. All media was supplemented with 100 U/mL penicillin and 100 μg/mL streptomycin. Human cancer cell lines were grown in the following media: MV4; 11, RS4; 11, K562, HEL, MOLM-14, MEG-01 in RPMI-1640, 10% FBS; SET-2 in RPMI-1640, 20% FBS; UKE-1 in RPMI-1640, 10% FBS, 10% horse serum and 1 μM hydrocortisone; SKNO-1 and TF-1 in RPMI-1640, 10% FBS, and 10 or 2 ng/mL GM-CSF, respectively; HaCaT in DMEM, 10% FBS; and HCT116 in McCoy's 5 A, 10% FBS (proliferation assay) or DMEM, 10% FBS (gene expression study). HepG2, MV4;11, RS4;11, MEG-01, TF-1, HCT116 and K562 were from ATCC. SKNO-1 was from DSMZ. HEL, UKE-1, and SET-2 were provided by Ross L. Levine and HaCaT, MV4;11-mCLP, and MOLM-14 by Van Wilson, Andrew L. Kung, and Scott A. Armstrong, respectively. MOLM-14 cells were authenticated by STR profiling and flow cytometry and all cell lines were routinely tested and found to be negative for mycoplasma.

HCT116 = assay: Cell growth assay, HCT116 (CellTiter-Blue); format: cell-based; conditions: Homo sapiens
Method: as §1

[1] = molecular target: T1, ROCK1 in MOLM-14 cell lysate (Homo sapiens, UniProt Q13464); assay: Native kinase capture immunoblot, ROCK1; format: binding
T1 construct: endogenous in cells; host or cells: MOLM-14 cell lysate
T1 sequence (Q13464 whole entry): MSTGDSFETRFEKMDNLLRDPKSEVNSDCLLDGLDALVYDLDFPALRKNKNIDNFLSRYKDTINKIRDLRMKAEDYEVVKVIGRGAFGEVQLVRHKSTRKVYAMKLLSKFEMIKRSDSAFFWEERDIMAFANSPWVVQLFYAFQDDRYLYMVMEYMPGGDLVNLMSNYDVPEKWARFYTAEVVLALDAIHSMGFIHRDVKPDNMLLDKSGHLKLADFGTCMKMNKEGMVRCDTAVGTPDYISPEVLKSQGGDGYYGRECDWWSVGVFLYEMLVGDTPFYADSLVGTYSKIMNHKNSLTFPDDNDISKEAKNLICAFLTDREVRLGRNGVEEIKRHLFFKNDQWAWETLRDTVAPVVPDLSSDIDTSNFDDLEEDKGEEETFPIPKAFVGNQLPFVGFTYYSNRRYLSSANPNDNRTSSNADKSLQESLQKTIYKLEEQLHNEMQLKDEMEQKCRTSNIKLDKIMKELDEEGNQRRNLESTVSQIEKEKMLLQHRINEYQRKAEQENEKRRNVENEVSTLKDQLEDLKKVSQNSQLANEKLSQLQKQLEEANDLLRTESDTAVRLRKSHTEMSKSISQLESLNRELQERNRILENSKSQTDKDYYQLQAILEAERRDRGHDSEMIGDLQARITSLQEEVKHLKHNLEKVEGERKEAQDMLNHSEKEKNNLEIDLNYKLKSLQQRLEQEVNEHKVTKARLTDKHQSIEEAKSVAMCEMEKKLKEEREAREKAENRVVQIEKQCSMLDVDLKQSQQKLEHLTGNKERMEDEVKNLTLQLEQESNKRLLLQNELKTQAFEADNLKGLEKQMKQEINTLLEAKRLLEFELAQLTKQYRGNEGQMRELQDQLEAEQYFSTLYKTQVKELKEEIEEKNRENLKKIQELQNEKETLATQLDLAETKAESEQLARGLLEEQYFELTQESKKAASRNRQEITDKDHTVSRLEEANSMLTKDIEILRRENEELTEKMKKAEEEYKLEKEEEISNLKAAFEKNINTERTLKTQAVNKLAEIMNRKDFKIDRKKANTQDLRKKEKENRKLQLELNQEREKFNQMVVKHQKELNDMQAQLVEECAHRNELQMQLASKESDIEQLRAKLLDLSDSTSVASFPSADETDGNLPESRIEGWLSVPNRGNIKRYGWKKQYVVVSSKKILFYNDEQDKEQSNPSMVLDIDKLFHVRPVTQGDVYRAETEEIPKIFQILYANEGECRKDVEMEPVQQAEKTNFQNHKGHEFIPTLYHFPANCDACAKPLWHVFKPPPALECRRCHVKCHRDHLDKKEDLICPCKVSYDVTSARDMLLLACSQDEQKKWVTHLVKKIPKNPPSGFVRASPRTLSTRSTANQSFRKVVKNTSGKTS
Method: (§2) Native Kinase Capture Immunoblot and Native Kinome-Wide Profiling. […] Experiment was performed twice with one immunoblot shown.

[2] = molecular target: T2, GSG2 in MOLM-14 cell lysate (Homo sapiens, UniProt Q8TF76); assay: Native kinase capture immunoblot, GSG2; format: binding
T2 construct: endogenous in cells; host or cells: MOLM-14 cell lysate
T2 sequence (Q8TF76 whole entry): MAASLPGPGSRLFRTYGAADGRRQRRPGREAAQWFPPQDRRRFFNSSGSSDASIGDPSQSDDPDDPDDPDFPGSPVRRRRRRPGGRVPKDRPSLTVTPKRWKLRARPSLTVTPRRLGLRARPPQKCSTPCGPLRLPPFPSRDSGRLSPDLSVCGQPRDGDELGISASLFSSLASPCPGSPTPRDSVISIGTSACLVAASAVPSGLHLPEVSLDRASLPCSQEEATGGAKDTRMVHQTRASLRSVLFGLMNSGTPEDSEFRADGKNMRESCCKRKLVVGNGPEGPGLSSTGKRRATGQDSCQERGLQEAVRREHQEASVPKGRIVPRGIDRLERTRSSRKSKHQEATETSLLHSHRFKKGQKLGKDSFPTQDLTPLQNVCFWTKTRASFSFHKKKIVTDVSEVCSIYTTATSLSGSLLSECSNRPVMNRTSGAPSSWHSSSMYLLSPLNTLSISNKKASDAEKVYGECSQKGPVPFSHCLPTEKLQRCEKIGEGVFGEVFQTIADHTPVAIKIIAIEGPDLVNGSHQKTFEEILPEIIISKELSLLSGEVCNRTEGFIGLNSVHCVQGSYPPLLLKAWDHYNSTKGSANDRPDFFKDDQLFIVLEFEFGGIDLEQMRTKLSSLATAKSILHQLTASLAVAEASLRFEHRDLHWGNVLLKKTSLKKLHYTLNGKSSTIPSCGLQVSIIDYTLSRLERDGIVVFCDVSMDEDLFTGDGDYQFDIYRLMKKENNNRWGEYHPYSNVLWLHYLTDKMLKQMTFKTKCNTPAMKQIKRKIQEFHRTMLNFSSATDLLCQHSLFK
Method: as §2

CDK9 (P-TEFb) = molecular target: T3, CDK9 (P-TEFb) (Homo sapiens, UniProt P50750); assay: In vitro kinase assay, CDK9 (P-TEFb); format: biochemical
T3 construct: made in house
T3 sequence (P50750 1-345 limits assumed): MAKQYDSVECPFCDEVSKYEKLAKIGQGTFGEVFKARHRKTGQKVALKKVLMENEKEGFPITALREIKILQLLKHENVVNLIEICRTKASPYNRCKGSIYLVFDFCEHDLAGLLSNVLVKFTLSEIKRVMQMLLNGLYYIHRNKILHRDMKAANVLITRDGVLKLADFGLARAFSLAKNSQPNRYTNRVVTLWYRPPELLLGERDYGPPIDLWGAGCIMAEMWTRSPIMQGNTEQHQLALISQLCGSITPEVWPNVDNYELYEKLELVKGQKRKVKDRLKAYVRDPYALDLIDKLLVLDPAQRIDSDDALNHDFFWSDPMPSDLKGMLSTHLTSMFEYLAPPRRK
T3 sequence (O60563 1-266 partner limits assumed): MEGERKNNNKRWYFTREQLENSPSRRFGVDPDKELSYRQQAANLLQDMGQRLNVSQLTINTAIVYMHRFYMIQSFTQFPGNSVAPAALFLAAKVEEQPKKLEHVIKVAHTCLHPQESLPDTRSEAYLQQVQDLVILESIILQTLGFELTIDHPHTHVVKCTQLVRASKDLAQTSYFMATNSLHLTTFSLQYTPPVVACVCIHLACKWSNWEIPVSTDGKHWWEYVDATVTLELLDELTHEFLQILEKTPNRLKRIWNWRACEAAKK
Method: (§3) Kinase Assays. Data was quantified with ImageJ and plotted and fitted with GraphPad Prism 6.0. For STAT1 transactivation domain (TAD), 750 ng of GST-STAT1 TAD (residues 639-750) was incubated with ˜50 ng recombinant CDK8 module at 30° C. for 8 min in kinase buffer (25 mM Tris pH 8, 2 mM DTT, 100 μM cold ATP, 100 mM KCl, 10 mM MgCl2 and 2.5 μCi [γ-^32P] ATP (Perkin Elmer) per reaction). […] 12% SDS-PAGE gels were subsequently silver stained, exposed for 18 h on a Phosphor Screen and imaged (Typhoon 9400, GE Life Sciences). For pol II CTD, 400 ng of GST-CTD (murine sequence) was incubated with ˜40 ng recombinant CDK8 module, 25 ng TFIIH, or 40 ng P-TEFb at 30° C. for 60 min in kinase buffer. Kinase amounts were chosen to give similar total pol II CTD signal. 9% SDS-PAGE gels were silver stained and exposed as above. In vitro FLAG-CDK8 kinase assays used ˜40 ng kinase and 500 ng GST-CTD. For STAT1 or Smad2/3, cells were treated with compound for 1 h followed by IFN-γ or TGF-β1 for 1 h, then washed twice with cold PBS, and lysed (RIPA buffer with inhibitors R0278, P8340, P0044, P5762 Sigma-Aldrich). Standard immunoblotting was then performed with one immunoblot shown. All experiments were performed twice.
Protein Purification. Buffers for purification and elution of recombinant proteins included 0.25 mM PMSF, 1 mM DTT, 1 mM benzamidine, and 1 mM sodium metabisulfite. […]

[3] = tested on: STAT1 S727 phosphorylation; assay: IFN-γ-stimulated STAT1 S727 phosphorylation immunoblot; format: cell-based, human; conditions: MOLM-14 cells
Method: as §3

**Q.** What does the source list for `CN(C)[C@H]1C[C@@]23CC[C@@]4(O2)C(=CC[C@@]2(C)[C@@H](c5ccc6ccncc6c5)CC[C@H]24)C=C3[C@@H](O)[C@@H]1O` [CA, cortistatin A]?
**A.** GI50 (SET-2; SET-2, 240 h, CA, after 10 days, read-out: Mean GI50 (nM), SET-2): 4 nM; GI50 (SET-2; SET-2, Table 5, read-out: GI50 (nM), SET2): 4 nM; GI50 (HCT116; HCT-116, 168 h, after 7 days, read-out: Mean GI50 (nM), HCT116): > 1000 nM; GI50 (HCT116; HCT-116, Table 5, read-out: GI50 (nM), HCT116): > 1000 nM; binding of ROCK1 (no binding up to) [1]: > 2500 nM; binding of GSG2 (no binding at up to) [2]: > 2500 nM; inhibition of CDK9 (P-TEFb) (CDK9 (P-TEFb)): did not inhibit; inhibition of STAT1 S727 phosphorylation [3]: dose-dependently inhibited
